{
  "source": "patent US20210052703A1",
  "about": "(SHANGHAI BENEMAE PHARMACEUTICAL CORPORATION, priority 2018, published 2021)",
  "test_system": "patients with type 2 diabetes",
  "experiment": "trial 5C: Beinaglutide with metformin, multicenter, type 2 diabetes",
  "type": "in vivo, human",
  "settings": "control group (metformin alone group); 12 weeks of treatment",
  "from_the_text": "Note: Covariance analysis was used for comparison between groups. The dependent variable was the change in body weight relative to baseline, and the covariate was baseline. Body weight change from baseline=post-treatment−baseline. Data from 5C test data.",
  "data": [
    {"compound": "CN(C)C(=N)N=C(N)N", "note": "[metformin, reference compound]", "values": [
      {"measurement": "proportion of subjects with weight loss from the baseline ≥3%", "result": 27.27, "unit": "%"},
      {"measurement": "proportion of subjects with weight loss ≥5%", "result": 10.39, "unit": "%"}
    ]}
  ]
}
